# Assay results from patent US20100297673A1, “METHODS AND COMPOSITIONS FOR UPREGULATION OF PEROXIREDOXIN ACTIVITY” (Reddy US Therapeutics, priority 2006, published 2010).
# How the values were obtained:
# LDL-receptor null mice = assay: Hyperlipidemia model, LDL-receptor null mice on cholesterol diet; format: in vivo; details: 100 mg/kg oral once a day, 15 days, plasma, vs vehicle
# Experimental: First, 14 week old LDL-receptor null mice were fed with a diet containing 0.8% cholesterol, 0.1% cholic acid and 20% coconut oil and once a day orally dosed with carboxymethyl cellulose suspension alone Compound A at 100 mg/kg (in carboxymethyl cellulose suspension) for 15 days. At the end of the study, plasma levels of cholesterol and triglycerides were determined using an enzymatic method (INFINITY™ Sigma Diagnostics).
# VCAM-1 = VCAM-1 ELISA in TNFα-induced endothelial cells; format: cell-based; details: Homo sapiens, Endothelial cell, 0.5 ng/ml TNFα, overnight, read-out: inhibition of VCAM-1 levels
# Experimental: Endothelial cell surface VCAM-1 was measured following compound A treatments. The cell layer was washed once with PBS and fixed with methanol. After fixing the cells, VCAM-1 expression was detected with the primary VCAM-1 antibody (goat-anti-Human VCAM-1 antibody—catalog# BBA19, R&D Systems) and secondary anti-goat antibody conjugated to horse radish peroxidase. Colorimetric measurements with made with the Multiskan Ascent plate reader.
# (§1) TNF-alpha (TNFα) (R&D Systems, Minneapolis, Minn., Catalogue No. 210-TA-010) is a pro-inflammatory cytokine implicated in the development of cardiovascular disease. Inflammatory markers produced in response to TNFα include monocyte chemoattractant protein—MCP-1, and vascular cell adhesion molecule—VCAM-1. Endothelial cells are known to produce these markers in response TNFα. To determine whether compound mediating the activation of Peroxiredoxin will result in decreased inflammation, MCP-1 and VCAM-1 levels were measured in TNFα-induced endothelial cells. Cells were stimulated with 0.5 ng/ml of TNFα with or without compound A in basal media supplemented with 1% FBS. Each treatment condition was done in triplicate. […] After fixing the cells, VCAM-1 expression was detected with the primary and secondary antibodies. Colorimetric measurements with made with the Multiskan Ascent plate reader.
# [1] = test system: apolipoprotein E-null mice; assay: Hyperlipidemia model, apolipoprotein E-null mice; format: in vivo; details: 100 mg/kg oral once a day, 14 days, plasma, vs vehicle
# Experimental: Second, 8 week old apolipoprotein E-null mice were fed with normal chow diet and once a day orally dosed with carboxymethyl cellulose suspension alone or Compound A at 100 mg/kg (in carboxymethyl cellulose suspension) for 14 days. At the end of the study, plasma levels of cholesterol and triglycerides were determined.
# Peroxiredoxin = Peroxiredoxin activity assay (NADPH oxidation coupled to H2O2 reduction); format: biochemical; details: addition to liver cells (FIG. 3); assay method states 500 nM compound A
# Experimental: An in vitro assay was developed to identify compounds that activated Peroxiredoxin (Peroxiredoxin inducers). In a 96-well plate, Peroxiredoxin (0.1 μg) was incubated with 5 μM of an unknown candidate compound and mixed with Hepes buffer containing NADPH, thioredoxin, thioredoxin reductase and hydrogen peroxide. When hydrogen peroxide was reduced by the activated Peroxiredoxin, the quantitative indicator, NADPH was converted to NADP. A decrease in NADPH was monitored by determining the absorption at […]. A decrease in NADPH was therefore, indicative of a Peroxiredoxin inducer.
# Peroxiredoxin-mediated reduction of H2O2 was coupled to oxidation of NADPH oxidation. NADPH oxidation was monitored as a decrease in absorbance at 340 nm (A340). The control reaction contained 50 mM Hepes-NaOH (pH 7.0), 1 mM EDTA, 2 μM thioredoxin, 150 nM thioredoxin reductase, H2O2 (8.8 mM), NADPH ([…]), and Peroxiredoxin (1 μM). The treatment group in addition contained 500 nM of compound A. The reaction was incubated for 30 seconds to 10 minutes and the change in absorbance was monitored.
# TNF-α = assay: LPS-induced acute inflammation in rats, serum TNF-α ELISA; format: in vivo, Sprague Dawley rats; details: 60 mg/kg oral, LPS 1 mg/kg i.p., serum 1 hour after LPS
# Experimental: The compound A was orally administrated (60 mg/kg) to female Sprague Dawley rats followed by intraperitoneal administration lipopolysaccharide (LPS−1 mg/kg). Blood samples were collected 1 hour after LPS administration. TNF-α level in the serum was analyzed by using ELISA.
# MCP-1 = MCP-1 ELISA in TNFα-induced endothelial cells; format: cell-based; details: Homo sapiens, Endothelial cell, 0.5 ng/ml TNFα, overnight, read-out: inhibition of MCP-1 levels
# Experimental: MCP-1 ELISA is carried out using Quantikine Human MCP-1 kit as described by manufacturer (R&D Systems, Minneapolis, Minn., Catalog #DY279E). Mouse anti-human MCP-1 was used as the capture antibody and HRP-conjugated goat anti-human MCP-1 (Zymed (now part of Invitrogen) catalog #81-1620, Carlsbad, Calif.) was used as the detection antibody. Culture media were incubated with capture antibody (in 96 well) for 2 hours at room temperature. Wells were washed three times with wash buffer (0.05% tween-20 in phosphate buffered saline (PBS) pH 7.4) followed by incubation with detection antibody for 2 hours at room temperature. Color development was read at 450 nm in a Microplate reader.
# as §1, with “Endothelial cells are known to produce these markers in response TNFα.” left out, “cells.” for “cells. Cells were stimulated with 0.5 ng/ml of TNFα with or without compound A in basal media supplemented with 1% FBS. Each treatment condition was done in triplicate.”
# [2] = test system: Human Aortic Smooth Muscle cells; assay: Cellular peroxide levels (Amplex Red Kit); format: cell-based; details: 3 uM compound, 30 min pre-incubation then 1 hour in growth media, cell lysates
# Experimental: H2O2 levels in human aortic smooth muscle cells (Rockland, Me. Clonetics, catalog #CC-2535) were measured using Amplex Red Kit (Molecular Probes). Smooth muscle cells were cultured in Clonetics growth media containing 5% fetal bovine serum. Cells at 70 percent confluence were starved overnight in serum free media and incubated for further 30 min in serum free media alone (control) or medium containing […] compound A (treatment) for 30 minutes. Growth media containing serum was then added and incubated for one hour. The cells were then lysed and H2O2 was assayed in lysates using Amplex Red Kit (Molecular Probes).
# To establish that compound mediated activation of Peroxiredoxin will result in decreased H2O2, H2O2 levels were measured in untreated (control) and compound A treated smooth muscle cells (See FIG. 16). Human Aortic Smooth Muscle cells at 70 percent confluence were starved overnight in basal media and incubated for further 30 min in basal medium alone (control) or medium containing 3 uM compound (treatment) for 30 minutes. Growth media was then added to the control sample and growth media plus compound was added to the treatment group and incubated for one hour. The cells were then lysed and H2O2 was assayed in lysates using Amplex Red Kit (Molecular Probes).
# HepG2 cells [3] = assay: Real time-PCR gene expression in HepG2 cells; format: cell-based, human
# Experimental: HepG2 cells were prepared from the T-75 flasks and were used to seed the 24-well plates with 1.6×10^5 cells per well per 1 ml of growth media. The next day, the media was removed and 1 ml of low-serum growth media was added to each well for 24 hours. The following day, the low-serum media was removed. In selected experiments, cells were treated with 100 uM H2O2 or si-Peroxiredoxin I. Media was removed and cells were lysed with the lysis buffer from the Ambion RNAqueous kit and plate was placed on ice. RNA was extracted using the kit according to the protocol. The RNA was quantitated using a spectrophotometer and frozen at −80° C. The next day, the RNA was used for real-time PCR. The RNA was thawed and master mixes for each primer were prepared with the Stratagene Full Velocity SYBR Green QRT-PCR Master Mix. Master Mix with primer was added to the appropriate wells then RNA was added to appropriate wells. […]
# HepG2 cells were grown in T-75 flasks prior to study. […] Total cholesterol and apoB levels were measured using an enzymatic assay. Percentage change was evaluated by comparing to both the baseline and the vehicle at the end of the study. […] RNA was isolated according to the manufacturer's protocol (Qiagen) and analyzed for changes in gene expression normalized to actin using RT-PCR. […]
# Stat1 = Stat1 activity assay (Stat1-luciferase reporter); format: cell-based, human; details: HepG2 transfected with Stat1-luciferase
# Experimental: HepG2 cells were prepared from the T-75 flasks and were used to seed the 24-well plates with 7.6×10^4 cells per well per 0.5 ml of DMEM+10% FBS. The next day, Stat1-lucuferase transfections were set up with Fugene6 according to the manufacturer's directions. In brief, transfection mixtures were prepared in DMEM in separate tubes from the reporter constructs also in DMEM. The samples incubated for 5 minutes at room temperature. Then, the constructs were mixed with the Fugene6 and incubated again for 30 minutes at room temperature. Then 50 μl transfection mix was added to each well in the existing media. Cells were allowed to incubate over night. In selected experiments, cells were treated with 100 uM H2O2 as well as with siPRDX1. After treatment, cells were lysed with the Promega lysis buffer. The wells were scraped and lysates were transferred into pre-chilled tubes and the lysates were cleared via centrifugation. 20 μl of cleared lysate was added to wells in 96 well clear plates and 100 μl of luciferase assay buffer was added to wells. Relative light units were counted using the PerkinElmer Envision.
# HepG2 were transiently transfected with a Stat1-luciferase reporter construct and subject to treatment with either H2O2 or siPeroxiredoxin 1. Bars show the mean±SD. Asterisks indicate statistical difference from the Mock group with significance values of p<0.05. […]
# HepG2 cells [4] = assay: Dil-LDL uptake assay in HepG2 cells; format: cell-based, human
# Experimental: Glass cover slips were autoclaved and aseptically transferred to 6-well tissue culture plates in a tissue culture hood. HepG2 cells were prepared from the T-75 flasks and were used to seed the 6-well plates (containing sterile cover slips) with 7.5×10^5 cells per well per 1 ml of growth media. The following day, the media was removed and the wells were washed 3 times with 2 mL DMEM+10% DLCS very gently. After washes, 2 ml of DMEM+10% (DLCS) was added to the wells and treatments continued for 24 hours. In selected experiments, cells were treated with 100 uM H2O2, control IgG or perlecan antibodies. The next day, the media was not changed and Dil LDL and DAPI were added to wells for uptake (5 hours). After the uptake was completed, the wells were washed gently 3 times with PBS (2 mL/well/wash) and after last wash, cells were fixed with 1 mL of 4% formaldehyde in PBS for 20 minutes. Wells were washed 5 times with water in excess. Cover slips were then mounted to slides using clearmount. Slides were stored at −20° C. The slides were imaged using the Nikon microscope and ColdSNAP-Pro camera. […] Images were quantitated using Image Pro-Plus software. The intensity per area of the fluorescent label was quantitated using the software and was used to generate the figure which is LDL uptake per area as a percent of the control.
# [5] = in vivo; cited from earlier work
smiles,measurement,setting,value
COc1ccc(Nc2nc(NC3CCCCCC3)nc(N3CCC(OC(=O)CCC(=O)O)CC3)n2)cc1Cl [Compound A],LDL cholesterol,LDL-receptor null mice,reduction
same,VLDL cholesterol,LDL-receptor null mice,reduction
same,total cholesterol,LDL-receptor null mice,reduction
same,triglycerides,LDL-receptor null mice,reduction
same,inhibition at 2.5 µM,VCAM-1,75%
same,total triglycerides,[1],reduction
same,increase in Peroxiredoxin activity over controls,Peroxiredoxin,48%
same,inhibition of LPS-induced TNFα elevation,TNF-α,completely inhibited
same,serum TNFα level,TNF-α,undetectable
same,inhibition at 2.5 µM,MCP-1,75%
same,decrease in H2O2 levels vs untreated control,[2],approximately 77%
"OO [Compound H2O2, hydrogen peroxide]",LDLr mRNA levels,HepG2 cells [3],did not have a significant effect
same,perlecan expression levels,HepG2 cells [3],significantly reduced
same,Stat1 driven luciferase expression,Stat1,significantly enhanced
same,LDL uptake by liver cells,HepG2 cells [4],significantly decreased
O=C1[C@H](CC[C@H](O)c2ccc(F)cc2)[C@@H](c2ccc(O)cc2)N1c1ccc(F)cc1 [Ezetimibe],cholesterol lowering,[5],15-18%
